The test system of series [1] is HBV. As to the kind of experiment: anti HBV activity, HepG2.117 cell line, intracellular HBV DNA by realtime PCR. In kind it is cell-based. As to conditions: HepG2.117 cell line (Tet-off), 3 days of treatment, intracellular HBV DNA quantified by realtime PCR; read-out: HBV-AVE-HepG2.117 EC50. A digest of the protocol:
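Readout was intracellular HBV DNA by real-time PCR (HBV-specific primers and probe) after 3 days of compound exposure. Serial dilutions were tested in duplicate on HepG2.117 cells, a stable inducible HBV producer in which replication is switched on when doxycycline is absent.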

Series [2] concerns HepG2 cells. As to the kind of experiment: Cytotoxicity in HepG2 cells, Resazurin assay. As to conditions: read-out: TOX-HepG2-4 d CC50; HepG2 cells incubated for 4 days, viability by Resazurin assay. A general note: Resazurin is reduced to fluorescent resorufin, in cell work by metabolically active cells.

Each structure is given as a SMILES string.

What is called EC50 is the concentration that produces a half-maximal response. The CC50 is the concentration at which the toxic effect on the cells reaches its halfway point.

`CC(NCC(F)(F)F)C1COc2c(cn(C)c2C(=O)Nc2ccc(F)c(C#N)c2)S(=O)(=O)N1` (single isomer, unassigned) [Compound 161b, N-(3-cyano-4-fluoro-phenyl)-7-methyl-1,1-dioxo-3-[1-(2,2,2-trifluoroethylamino)ethyl]-3,4-dihydro-2H-pyrrolo[3,4-b][1,4,5]oxathiazepine-6-carboxamide]: the EC50 in series [1] is more than 125 nM. Further, the half-maximal cytotoxic concentration (CC50) in series [2] was more than 25000 nM.
The like results for `Cn1cc2c(c1C(=O)Nc1ccc(F)c(F)c1)OCC(C)(c1ncco1)NS2(=O)=O` (single isomer, unassigned) [Compound 160b, N-(3,4-difluorophenyl)-3,7-dimethyl-3-oxazol-2-yl-1,1-dioxo-2,4-dihydropyrrolo[3,4-b][1,4,5]oxathiazepine-6-carboxamide] were, in that order, 21 nM and more than 25000 nM.
As to `CCC(O)[C@H]1COc2c(cn(C)c2C(=O)Nc2ccc(F)c(C#N)c2)S(=O)(=O)N1` (stereo partly drawn) [Compound 122b, (3R)—N-(3-cyano-4-fluoro-phenyl)-3-(1-hydroxypropyl)-7-methyl-1,1-dioxo-3,4-dihydro-2H-pyrrolo[3,4-b][1,4,5]oxathiazepine-6-carboxamide], in series [1], the concentration for a half-maximal effect (EC50) is 9 nM. Moreover, the 50% cytotoxic concentration (CC50) in series [2] was more than 25000 nM.
With `CC(NCC(F)(F)F)C1COc2c(cn(C)c2C(=O)Nc2ccc(F)c(C#N)c2)S(=O)(=O)N1` (single isomer, unassigned) [Compound 161d, N-(3-cyano-4-fluoro-phenyl)-7-methyl-1,1-dioxo-3-[1-(2,2,2-trifluoroethylamino)ethyl]-3,4-dihydro-2H-pyrrolo[3,4-b][1,4,5]oxathiazepine-6-carboxamide], the EC50 in series [1] was 11 nM. For the same molecule, in series [2], the CC50 is more than 25000 nM.
`Cn1cc2c(c1C(=O)Nc1ccc(F)c(C#N)c1)CCC(C(C)(C)O)NS2(=O)=O` (single isomer, unassigned) [Compound 116b, N-(3-cyano-4-fluoro-phenyl)-3-(1-hydroxy-1-methyl-ethyl)-7-methyl-1,1-dioxo-2,3,4,5-tetrahydropyrrolo[3,4-f]thiazepine-6-carboxamide]: the EC50 in series [1] was more than 350 nM. In series [2], the CC50 was more than 25000 nM.
The like results for `Cn1cc2c(c1C(=O)Nc1ccc(F)c(F)c1)OCC(C)(Cc1cccnc1)NS2(=O)=O` (single isomer, unassigned) [Compound 199b, N-(3,4-difluorophenyl)-3,7-dimethyl-1,1-dioxo-3-(3-pyridylmethyl)-2,4-dihydropyrrolo[3,4-b][1,4,5]oxathiazepine-6-carboxamide] were, in that order, 8 nM and more than 25000 nM.
Take `Cn1cc2c(c1C(=O)Nc1ccc(F)c(C#N)c1)OC[C@H](C(O)C1CC1)NS2(=O)=O` (stereo partly drawn) [Compound 120b, (3R)—N-(3-cyano-4-fluoro-phenyl)-3-[cyclopropyl(hydroxy)methyl]-7-methyl-1,1-dioxo-3,4-dihydro-2H-pyrrolo[3,4-b][1,4,5]oxathiazepine-6-carboxamide]: the EC50 in series [1] is 11 nM. In addition, in series [2], the CC50 is more than 25000 nM.
As for `Cc1cccc(CC2(C)COc3c(cn(C)c3C(=O)Nc3ccc(F)c(F)c3)S(=O)(=O)N2)n1` (single isomer, unassigned) [Compound 172b, N-(3,4-difluorophenyl)-3,7-dimethyl-3-[(6-methyl-2-pyridyl)methyl]-1,1-dioxo-2,4-dihydropyrrolo[3,4-b][1,4,5]oxathiazepine-6-carboxamide], the EC50 in series [1] amounted to 64 nM. Also, the CC50 in series [2] is more than 25000 nM.
The like results for `CC1CCc2c(cn(C)c2C(=O)Nc2ccc(F)c(F)c2)S(=O)(=O)N1` (single isomer, unassigned) [Compound 10b, N-(3,4-difluorophenyl)-3,7-dimethyl-1,1-dioxo-2,3,4,5-tetrahydropyrrolo[3,4-f]thiazepine-6-carboxamide] were, in that order, 6 nM and more than 25000 nM.

The values above are taken from patent US10875876B2, “Cyclized sulfamoylarylamide derivatives and the use thereof as medicaments for the treatment of hepatitis B” (priority 2015, dated 2020).
